Reference: PubChem BioAssay (NCI)
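Step 1: Grow cells in 96-well plates. Step 2: Expose to compound for 48 hours at 5 concentrations. Step 3: Interpolate endpoints linearly; if unreached, use highest concentration. TGI: total growth inhibition.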

How the values were obtained:
Assay in all cases: growth of human tumour cells (NCI), 48 h
DLD-1 colon = system: DLD-1 colon
HCT-116 colon = system: HCT-116 colon
COLO 205 colon = system: COLO 205 colon
RPMI-8226 leukemia = system: RPMI-8226 leukemia
HOP-62 NSCLC = system: HOP-62 NSCLC
A498 renal = system: A498 renal
DMS 273 small cell lung = system: DMS 273 small cell lung
MDA-MB-231 breast = system: MDA-MB-231 breast
HS 578T breast = system: HS 578T breast
PC-3 prostate = system: PC-3 prostate

| SMILES | TGI (DLD-1 colon) [µM] | TGI (HCT-116 colon) [µM] | TGI (COLO 205 colon) [µM] | TGI (RPMI-8226 leukemia) [µM] | TGI (HOP-62 NSCLC) [µM] | TGI (A498 renal) [µM] | TGI (DMS 273 small cell lung) [µM] | TGI (MDA-MB-231 breast) [µM] | TGI (HS 578T breast) [µM] | TGI (PC-3 prostate) [µM] |
| --- | --- | --- | --- | --- | --- | --- | --- | --- | --- | --- |
| Cc1ccc(S(=O)(=O)N/N=C(/c2nc3ccc([N+](=O)[O-])cc3[nH]c2=O)C(O)c2ccc(C(O)/C(=N\NS(=O)(=O)c3ccc(C)cc3)c3nc4ccc([N+](=O)[O-])cc4[nH]c3=O)cc2)cc1 (centres undefined) | > 100 | > 100 | > 100 | > 100 | > 100 | > 100 | > 100 |  |  |  |
| ClC(Cl)[Si]12OCCN(CCO1)CCO2 | > 100 | > 100 | > 100 | > 100 |  | > 100 | > 100 |  |  |  |
| NS(=O)(=O)OCCCCCCCOS(N)(=O)=O | 1540 | 820 | 814 | 1330 | 676 | 770 | 454 | 1030 | 1790 | 1240 |
| O=C(Nc1nc2c(ncn2C2OC(CO)C(O)C2O)c(=O)[nH]1)c1ccccc1 (centres undefined) | > 100 | > 100 | > 100 | > 100 | > 100 | > 100 | > 100 |  |  |  |
| C=CCc1cc(OC)c2c(c1)C(OC)CC(c1ccc(OC)c(OC)c1)O2 (centres undefined) | > 100 | > 100 | > 100 | > 100 | > 100 | > 100 | > 100 |  |  |  |
| Cc1c(/C=N/N(C)C)oc2c1cc(O)c1ncccc12 | > 100 | > 100 | > 100 | > 100 | > 100 | 82 | 37.7 |  |  |  |
| CC1(c2ccc(Cl)cc2)C2C(=O)NC(=O)C1C(=O)NC2=O (centres undefined) | > 100 |  | > 100 | > 100 | > 100 | > 100 | > 100 |  |  |  |
| Nc1c(Cl)ncnc1NCCCNc1ncnc(Cl)c1N | > 100 | > 100 | > 100 | > 100 | > 100 | > 100 | > 100 |  |  |  |
| O=c1[nH]cnc2c1nnn2CCCCCCCCCCCCn1nnc2c(=O)[nH]cnc21 | > 100 | > 84.1 | > 100 | > 100 | 54 | 53.6 | > 100 |  | 60.7 | > 100 |
| CC1=C(C(=O)Nc2ccc(Cl)c(C(=O)OC(C)C)c2)SCCO1 | > 79.4 | > 77.4 | 60 | 67.7 | > 100 | 90.9 | 73.1 | > 100 | 73.9 | > 100 |
| CC(=O)C1=C(O)C2C3c4c[nH]c5cccc(c45)CC3C(C)(C)N2C1=O (centres undefined) | > 100 |  | > 100 | > 100 | 22.4 | 98.2 | > 100 |  |  |  |
| NC(=O)NC1C(C(N)=O)N(Cc2ccccc2)C(=O)N1Cc1ccccc1 (centres undefined) | > 100 | > 100 | > 100 | > 100 | > 100 |  | > 100 |  |  |  |
| COc1cc(CCc2ccc(N)cc2)cc(OC)c1OC | > 100 | > 100 | 53.1 | > 100 | > 100 | > 100 | > 100 |  |  |  |
| Nc1ncnc2c1ncn2C1CC(OCc2ccccc2[N+](=O)[O-])C(CO)O1 (centres undefined) | > 50 | > 50 | 16.9 | > 50 | > 50 | > 50 | > 50 |  |  |  |
| CN(c1ccccc1)c1c(Cl)c(=O)oc2c1ccc1occc12 | > 100 | > 100 |  | > 100 |  | > 100 | > 100 |  |  |  |
| O=C(NNc1ccccc1)/C(=C/c1ccc2c(c1)OCO2)NC(=O)c1ccccc1 | > 100 | > 100 | > 100 | > 100 | > 100 | > 100 | > 100 |  |  |  |
| CC(=O)OC1COC(n2c(=S)n(-c3ccccc3)c(=O)c3ccccc32)C(OC(C)=O)C1OC(C)=O (centres undefined) | > 100 | > 100 | > 100 | > 100 | > 100 | > 100 | > 100 |  |  |  |
| c1ccc2c(c1)cc1n2CC2CN=NC12 (centres undefined) | > 100 | > 100 |  | > 100 | > 100 | > 100 | > 100 |  |  |  |
| CC1(C)C(=O)C(C)(C)C1=S | > 100 | > 100 | > 100 | > 100 | > 100 | > 100 | > 100 |  |  |  |
